Earlier results as cited in US20080166423A1, “Combination Medication for Treating the Effects of Stomach Acid Reduction Medication on Bone Integrity” (priority 2007, published 2008).

Conditions: per day

CC(=O)Nc1ccc(O)cc1 [Acetaminophen]
daily dosage with known liver toxicity: > 4000 mg
